Values joined by “and” are separate entries in the source; they are usually repeats but may differ in a detail not shown here. Identical values can stand only once.
Key:
[1] = tested on: Acinetobacter baumannii ST15; test: MIC determination, fixed concentration of sBLI (Examples 11-18); type: cell-based; conditions: NDM-1, OXA-51, ADC-263, caMHB
Experimental: (§1) Antimicrobial susceptibility testing (AST) by broth microdilution (MIC determination) was performed according to The European Committee on Antimicrobial Susceptibility Testing (EUCAST) guidelines (see Reading guide for broth microdilution Version 5.0, 2024: https://www.eucast.org).
(§2) For combinations containing meropenem as the antibiotic, Sensititre™ FINMER meropenem 64-0.03 μg/mL plates (Thermo Fischer Diagnostics custom plates; YFINMER) were used in most of the experiments. For other antibiotics (and for meropenem whenever a higher start concentration than 64 μg/mL was needed) sterile clear round bottom polystyrene (non-treated) 96-well microplates (Corning 3788) were used for making serial two-fold dilutions of the antibiotic in cation-adjusted Mueller Hinton II broth (caMHB; Thermo Scientific, T3462, containing 29.4 μM Zn^2+ or MILLIPORE, 90922-500G, containing 5.6 μM Zn^2+), across the columns of the microtiter plate (128-0.06 μg/mL; columns 1-12).
(§3) The checkerboard plates were all modified by adding a serine β-lactamase inhibitor (sBLI) at a fixed concentration of 16 μg/mL. Additionally, the zinc chelator was added at various fixed concentrations. Samples were mixed so that all plates contained a control containing antibiotic alone (no sBLI, no zinc chelator), a sample containing antibiotic and sBLI (double combination; no zinc chelator), and a sample containing antibiotic, sBLI and zinc chelator (triple combination). All test wells used in each plate contained growth medium (caMHB), and inoculated bacteria at a final inoculum between 3-7×10^5 CFU/mL. […] Synergy for the triple combination (antibiotic, sBLI, and zinc chelator) was defined as when the MIC in any of the rows containing the zinc chelator in combination with antibiotic and sBLI (triple combination), was lower than for antibiotic alone and lower than for the antibiotic and sBLI double combination.
(§4) An X in rows 1~4 in the table indicates growth of the bacterial inoculum, while a blank cell indicates no growth. Concentrations (μg/mL) of MEM are given in row 0. SUL and the zinc chelator were added in fixed concentrations (SUL at 16 μg/mL in rows 2-4, zinc chelator at 16 μg/mL in row 3 and at 8 μg/mL in row 4). As a control, the effect of MEM alone was tested (row 1). All wells contained bacterial growth medium (caMHB, 29.4 μM Zn^2+) and were inoculated with the test bacterium. The grey cells indicate the meropenem MIC.
as §4, with “AMOX” for “MEM”, “amoxicillin” for “meropenem”
Two technical replicates were performed for each sample. An X in rows 1-8 in the table indicates growth of the bacterial inoculum, while a blank cell indicates no growth. Concentrations (μg/mL) of AMP are given in row 0. SUL and the zinc chelator were added in fixed concentrations (SUL at 16 μg/mL in rows 3-8, zinc chelator at 16 μg/mL in rows 5-6 and at 8 μg/mL in rows 7-8). As a control, the effect of AMP alone was tested (rows 1-2). All wells contained bacterial growth medium (caMHB, 29.4 μM Zn^2+) and were inoculated with the test bacterium. […]

[2] = tested on: Pseudomonas aeruginosa ST773; test: MIC determination, fixed concentration of sBLI (Examples 19-26); type: cell-based; conditions: NDM-1, OXA-395, PDC-16, caMHB
Experimental: as §1, §2, §3
as §4, with “TAZ” for “SUL”, “(TAZ” for “(SUL”
as §4, with “AZT” for “MEM”, “AVI” for “SUL”, “(AVI” for “(SUL”, “aztreonam” for “meropenem”
Two technical replicates were performed for each sample. An X in rows 1-8 in the table indicates growth of the bacterial inoculum, while a blank cell indicates no growth. Concentrations (μg/mL) of PIP are given in row 0. AVI and the zinc chelator were added in fixed concentrations (AVI at 16 μg/mL in rows 3-8, zinc chelator at 16 μg/mL in rows 5-6 and at 8 μg/mL in rows 7-8). As a control, the effect of PIP alone was tested (rows 1-2). All wells contained bacterial growth medium (caMHB, 29.4 μM Zn^2+) and were inoculated with the test bacterium. The grey cells indicate the piperacillin MIC.
An X in rows 1~4 in the table indicates growth of the bacterial inoculum, while a blank cell indicates no growth. Concentrations (μg/mL) of PIP are given in row 0. TAZ and the zinc chelator were added in fixed concentrations (TAZ at 16 μg/mL in rows 2-4, zinc chelator at 16 μg/mL in row 3 and at 8 μg/mL in row 4). As a control, the effect of PIP alone was tested (row 1). […]

[3] = tested on: certain strains of Pseudomonas aeruginosa; conditions: with MEM; cited from earlier work
[4] = tested on: Acinetobacter baumannii ST25; test: MIC determination, fixed concentration of sBLI (Example 10); type: cell-based; conditions: with AMP and SUL 16 μg/mL, NDM-1, OXA-58, OXA-64, OXA-10, VEB-21, ADC-26, caMHB, 29.4 μM Zn2+
Experimental: as §1, §2
The checkerboard plates were all modified by adding a serine β-lactamase inhibitor (sBLI) at a fixed concentration of 16 μg/mL. Additionally, the zinc chelator was added at various fixed concentrations. […]

CN(C[C@H](O)[C@@H](O)[C@H](O)[C@H](O)CO)C(=O)c1ccc(CN(Cc2ccccn2)Cc2ccccn2)nc1 [zinc chelator]
Synergy with the zinc chelator observed at concentration ([1]; Example 11, with MEM and SUL 16 μg/mL, 29.4 μM Zn2+): 16 µg/mL
Synergy with the zinc chelator observed at concentration ([1]; Example 12, with AMOX and SUL 16 μg/mL, 29.4 μM Zn2+): 16 µg/mL
Synergy with the zinc chelator observed at concentration ([1]; Example 13, with AMP and SUL 16 μg/mL, 29.4 μM Zn2+): 16 µg/mL
Synergy with the zinc chelator observed at concentration ([1]; Example 14, with PIP and TAZ 16 μg/mL, 29.4 μM Zn2+): 16 µg/mL and 8 µg/mL
Synergy with the zinc chelator observed at concentration ([1]; Example 18, with PIP and TAZ 16 μg/mL, 5.6 μM Zn2+): 16 µg/mL and 8 µg/mL
Synergy with the zinc chelator observed at concentration ([2]; Example 19, with MEM and TAZ 16 μg/mL, 29.4 μM Zn2+): 16 µg/mL
Synergy with the zinc chelator observed at concentration ([2]; Example 20, with AZT and AVI 16 μg/mL, 29.4 μM Zn2+): 16 µg/mL
Synergy with the zinc chelator observed at concentration ([2]; Example 21, with PIP and AVI 16 μg/mL, 29.4 μM Zn2+, 8 μg/mL for one replicate only, other replicate not interpretable): 16 µg/mL and 8 µg/mL
Synergy with the zinc chelator observed at concentration ([2]; Example 22, with PIP and TAZ 16 μg/mL, 29.4 μM Zn2+): 16 µg/mL
Synergy with the zinc chelator observed at concentration ([2]; Example 24, with MEM and TAZ 16 μg/mL, 5.6 μM Zn2+, 16 and 4 μg/ml not interpretable according to EUCAST): 8 µg/mL
Synergy with the zinc chelator observed at concentration ([2]; Example 26, with PIP and TAZ 16 μg/mL, 5.6 μM Zn2+, 16 μg/mL not interpretable according to EUCAST): 8 µg/mL and 4 µg/mL
effect of combination [3]: poor effect
Synergy with the zinc chelator observed at concentration [4]: 16 µg/mL

From patent US20260306526A1, “COMBINATION THERAPY FOR BACTERIAL INFECTIONS COMPRISING ZINC-CHELATOR, BETA-LACTAM ANTIBIOTIC AND SERINE BETA-LACTAMASE INHIBITOR” (priority 2023, published 2026)
